Active and inactive are the calls of the source.
Key:
Cysteine protease ATG4B = Cysteine protease ATG4B (Homo sapiens, UniProt Q9Y4P1); type: functional;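 further: Fluorescence-based dose-response confirmation assay measuring inhibition of ATG4B activity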
Phospholipase A2 = Phospholipase A2 (Homo sapiens, UniProt P04054); type: functional;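 further: confirmatory dose-response counterscreen on phospholipase A2, testing hits that came from an ultra-high-throughput screen for ATG4B inhibitors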
[1] = biological target: T1, Bifunctional protein GlmU (Mycobacterium tuberculosis, UniProt P9WMN3); assay: Inhibitors of Mycobacterial Glucosamine-1-phosphate acetyl transferase (GlmU). Secondary screen.; design: species or system Mycobacterium tuberculosis H37Rv
T1 sequence (P9WMN3 whole entry): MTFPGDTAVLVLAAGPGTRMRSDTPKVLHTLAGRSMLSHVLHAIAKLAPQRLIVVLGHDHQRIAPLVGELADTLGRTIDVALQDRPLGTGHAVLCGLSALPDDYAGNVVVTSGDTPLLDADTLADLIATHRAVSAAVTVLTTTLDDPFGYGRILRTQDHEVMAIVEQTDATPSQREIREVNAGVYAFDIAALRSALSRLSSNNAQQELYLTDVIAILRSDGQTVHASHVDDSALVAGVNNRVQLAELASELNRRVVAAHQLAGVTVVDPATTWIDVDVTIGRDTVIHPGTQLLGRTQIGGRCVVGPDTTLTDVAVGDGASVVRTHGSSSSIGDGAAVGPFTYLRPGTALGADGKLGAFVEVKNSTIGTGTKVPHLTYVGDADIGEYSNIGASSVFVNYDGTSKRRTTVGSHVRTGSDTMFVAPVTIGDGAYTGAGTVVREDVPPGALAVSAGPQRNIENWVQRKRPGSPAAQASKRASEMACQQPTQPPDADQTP

[2] = biological target: Induced myeloid leukemia cell differentiation protein Mcl-1 (Homo sapiens, UniProt Q07820); type: functional
Sequence of Induced myeloid leukemia cell differentiation protein Mcl-1 (Q07820 whole entry): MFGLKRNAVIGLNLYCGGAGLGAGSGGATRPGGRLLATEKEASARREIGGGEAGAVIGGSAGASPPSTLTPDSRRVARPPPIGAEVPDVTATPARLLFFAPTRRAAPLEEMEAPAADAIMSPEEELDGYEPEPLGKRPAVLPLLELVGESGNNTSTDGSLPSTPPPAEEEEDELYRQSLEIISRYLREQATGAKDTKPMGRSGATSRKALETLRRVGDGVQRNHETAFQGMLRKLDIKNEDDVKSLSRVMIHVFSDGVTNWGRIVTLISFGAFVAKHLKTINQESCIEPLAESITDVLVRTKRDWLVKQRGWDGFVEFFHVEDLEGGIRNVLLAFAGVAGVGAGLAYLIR

[3] = biological target: T2, Beta-adrenergic receptor kinase 1 (Homo sapiens, UniProt P25098); assay: aptamer displacement from bead-bound GRK2 – biochemical, cherry pick 1, bead flow cytometry, dose response (AID 504500)
T2 sequence (P25098 whole entry): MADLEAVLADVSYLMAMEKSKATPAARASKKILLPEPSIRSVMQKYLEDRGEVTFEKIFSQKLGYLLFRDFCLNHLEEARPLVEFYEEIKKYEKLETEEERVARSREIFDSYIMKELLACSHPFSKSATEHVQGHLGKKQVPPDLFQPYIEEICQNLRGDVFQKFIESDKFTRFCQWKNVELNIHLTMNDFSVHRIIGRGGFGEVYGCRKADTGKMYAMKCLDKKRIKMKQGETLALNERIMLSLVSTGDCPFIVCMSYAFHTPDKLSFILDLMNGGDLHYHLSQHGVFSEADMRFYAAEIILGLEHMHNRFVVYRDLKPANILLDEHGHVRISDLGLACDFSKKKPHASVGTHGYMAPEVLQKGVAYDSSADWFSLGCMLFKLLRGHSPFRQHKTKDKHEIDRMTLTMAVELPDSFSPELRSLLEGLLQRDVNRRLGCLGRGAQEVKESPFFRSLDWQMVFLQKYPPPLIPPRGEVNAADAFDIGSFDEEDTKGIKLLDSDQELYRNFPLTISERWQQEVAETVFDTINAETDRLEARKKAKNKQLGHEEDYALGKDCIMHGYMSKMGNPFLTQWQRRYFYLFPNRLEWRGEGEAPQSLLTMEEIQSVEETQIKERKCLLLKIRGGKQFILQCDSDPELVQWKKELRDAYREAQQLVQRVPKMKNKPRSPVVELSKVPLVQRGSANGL

[4] = biological target: Apoptotic protease-activating factor 1 (Homo sapiens, UniProt O14727); assay: activation of Apaf-1 mediated apoptosis – fluorescent, uHTS hits, dose response (AID 588554); type: functional
Sequence of Apoptotic protease-activating factor 1 (O14727 whole entry): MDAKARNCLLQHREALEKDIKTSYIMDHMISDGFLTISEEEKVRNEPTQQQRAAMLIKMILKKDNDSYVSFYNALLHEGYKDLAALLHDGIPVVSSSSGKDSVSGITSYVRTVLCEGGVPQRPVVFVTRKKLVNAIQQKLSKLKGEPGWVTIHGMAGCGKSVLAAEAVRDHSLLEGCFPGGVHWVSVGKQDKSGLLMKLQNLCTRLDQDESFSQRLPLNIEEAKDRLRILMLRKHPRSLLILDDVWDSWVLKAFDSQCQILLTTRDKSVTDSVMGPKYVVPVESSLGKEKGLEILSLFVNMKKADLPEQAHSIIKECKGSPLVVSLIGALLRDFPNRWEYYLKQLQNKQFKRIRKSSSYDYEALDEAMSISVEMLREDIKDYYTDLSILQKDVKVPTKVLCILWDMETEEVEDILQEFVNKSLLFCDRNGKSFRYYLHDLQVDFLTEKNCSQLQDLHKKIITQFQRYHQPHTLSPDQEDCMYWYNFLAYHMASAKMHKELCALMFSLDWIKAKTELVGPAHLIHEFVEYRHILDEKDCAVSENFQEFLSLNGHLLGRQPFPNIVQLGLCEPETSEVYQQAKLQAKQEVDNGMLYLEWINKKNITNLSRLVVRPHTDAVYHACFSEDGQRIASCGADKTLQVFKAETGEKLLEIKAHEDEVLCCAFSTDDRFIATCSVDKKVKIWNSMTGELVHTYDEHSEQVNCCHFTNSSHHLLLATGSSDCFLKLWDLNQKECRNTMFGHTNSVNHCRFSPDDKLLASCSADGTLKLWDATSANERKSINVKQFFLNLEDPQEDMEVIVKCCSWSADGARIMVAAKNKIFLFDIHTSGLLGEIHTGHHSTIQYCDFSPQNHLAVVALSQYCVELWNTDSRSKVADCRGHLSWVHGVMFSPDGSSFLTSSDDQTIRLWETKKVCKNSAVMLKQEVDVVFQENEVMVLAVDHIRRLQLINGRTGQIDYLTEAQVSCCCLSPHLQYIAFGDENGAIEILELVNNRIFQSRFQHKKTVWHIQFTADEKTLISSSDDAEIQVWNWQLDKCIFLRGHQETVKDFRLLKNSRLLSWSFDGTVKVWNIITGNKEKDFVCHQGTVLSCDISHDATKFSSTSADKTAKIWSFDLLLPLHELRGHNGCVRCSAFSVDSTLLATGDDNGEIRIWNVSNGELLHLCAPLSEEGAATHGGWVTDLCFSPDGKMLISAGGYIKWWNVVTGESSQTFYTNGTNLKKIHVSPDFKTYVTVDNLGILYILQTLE

Sequence of Cysteine protease ATG4B (Q9Y4P1 whole entry): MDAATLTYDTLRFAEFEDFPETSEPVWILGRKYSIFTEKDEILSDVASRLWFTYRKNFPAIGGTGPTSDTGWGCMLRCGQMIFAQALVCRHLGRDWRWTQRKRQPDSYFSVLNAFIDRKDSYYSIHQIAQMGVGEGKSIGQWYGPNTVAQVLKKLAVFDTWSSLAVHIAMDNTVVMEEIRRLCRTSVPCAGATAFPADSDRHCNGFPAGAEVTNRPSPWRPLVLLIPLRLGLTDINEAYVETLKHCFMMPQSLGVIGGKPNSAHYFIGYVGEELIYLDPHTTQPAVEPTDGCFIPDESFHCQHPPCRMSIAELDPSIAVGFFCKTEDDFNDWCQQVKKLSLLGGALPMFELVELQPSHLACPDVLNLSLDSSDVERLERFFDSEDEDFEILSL
Sequence of Phospholipase A2 (P04054 whole entry): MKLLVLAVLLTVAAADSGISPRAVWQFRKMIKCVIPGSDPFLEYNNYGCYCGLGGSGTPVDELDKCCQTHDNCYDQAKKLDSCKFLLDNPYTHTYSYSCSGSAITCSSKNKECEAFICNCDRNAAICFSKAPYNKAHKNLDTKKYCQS

What does the source list for `O=C(Nc1c(Cl)cccc1Cl)c1cc(-c2ccco2)on1`?
IC50 (Cysteine protease ATG4B): 13.2 µM (active); IC50 (Phospholipase A2): 6.14 µM (active)

For `C=C(C)C(=O)Nc1cccc(C2=NOC3(C2)C[C@H](C(N)=O)N(C(=O)C(c2ccccc2)c2ccccc2)C3)c1` (stereo partly drawn), which IC50 [1] is on record?
The IC50 was 167 µM (active).

And the IC50 [2]?
Its IC50 is 3.12 µM (active).

What about the EC50 [3] of the same molecule?
Its EC50 is 85.9 µM (inactive).

What about the EC50 [4] of the same molecule?
The EC50 was 11.4 µM (active).

`CCN(CC(=O)N1CCc2ccccc2C1)S(=O)(=O)c1ccc2ccccc2c1` was tested. Which IC50 (Cysteine protease ATG4B) did it give?
Its IC50 is 23.7 µM (inactive).

What about the IC50 (Phospholipase A2) of the same molecule?
Its IC50 is 4.17 µM (active).

From ChEMBL document CHEMBL1201862, “PubChem BioAssay data set” (2004)
